{"source": "patent US20070259439A1", "about": "“Determination of antibiotic concentration in bone” (Wyeth, priority 2006, published 2007)", "key": {"[1]": {"assay": "54-hour autosampler stability of extracted tigecycline from incurred human bone with ascorbic acid", "type": "physicochemical", "conditions": "ascorbic acid added", "protocol": "Stability tests for tigecycline in IncRB reference QC samples or incHB QC samples were conducted in 4 cycles of freeze/thaw for IncRB QC and (3 cycles for IncHB QC of −70° C./22° C.) and in standard bench top (22° C.) stability (4 hours for rat bone and 6 hours for human bone) tests. These tests occurred during sequential extraction from run 1 through run 3. Bench top stability of IncRB reference QC samples (4 hours at room temperature) and incurred human bone sample (6 hours at room temperature), and extracted tigecycline from the IncRB and incurred human reference QC samples in the autosampler at 4° C. were evaluated during the method validation. Autosampler stability of tigecycline in IncRB Group B sample (^14C) was employed as the sample pool because aliquots from IncRB Group A were exhausted from prior testing. Results were plotted as the peak area ratio against time. The 54-hour autosampler stability of incurred human bone was performed by comparing extracted samples injected immediate after extraction (baseline) with the same set of extracted samples re-injected after 54 hours of storage at 4° C., regressed with a standard curve injected immediately after extraction (baseline)."}, "[2]": {"test_system": "Bacillus cereus ATCC 11778", "assay": "Verification of tigecycline microbiological activity (agar well diffusion bioassay)", "type": "cell-based", "conditions": "for Zone Size, Sample: n = 3", "protocol": "Standard Curve Preparation: A stock solution of tigecycline standard powder, at a concentration of 1000 μg/ml, was prepared in normal saline. Dilutions were prepared in normal saline at a concentration range of 4, 2, 1 and 0.5, 0.25, and 0.125 μg/ml for the preparation of the standard curve. The internal standard (1 μg/ml) was also made from stock solution.\nPreparation of Inoculum: An overnight trypticase soy agar blood plate culture (incubated at 30° C.) of Bacillus cereus ATCC 11778 was adjusted to a McFarland 0.5 standard in saline. This suspension yields a bacterial density of approximately 10^8 colony forming units (CFU)/ml.\nPreparation of Bioassay Agar Plates: The agar medium was prepared by adding nutrient broth (8 g) and agarose (11 g or […]) per liter of distilled water. After autoclaving at 121° C. for 15 minutes, the medium was allowed to equilibrate to a temperature of 48-50° C. for approximately 1 hour in a water bath. The adjusted B. cereus culture was used to inoculate the cooled agar to a final concentration of 1% (1 ml/100 ml). A volume of 100 ml is added to a Nunc bioassay dish and the agar allowed to solidify at room temperature on a level surface. After cooling, wells were cut into the surface of the agar assay plate using a vacuum well cutting device. The standard curve and unknown samples were placed into the wells (50 μl) in a predetermined array with three wells each per concentration. An internal standard was also tested in triplicate. The pulverized bone samples (and standards for that experiment) were overlaid with 1.1% agarose (50 μl) to maintain contact with the seeded agar. The plates were pre-diffused at 4° C. for two hours, then incubated at 30° C. for 18-24 hours.\nDetermination of antibiotic concentrations in IncRB samples: The diameters of the zones of inhibition for standards and samples were measured using electronic calipers. The concentrations of the standard curve were then plotted on a semilogarithmic scale vs their corresponding zone diameters to give a standard regression curve. The concentrations of the samples and internal standard were determined by comparing the mean zone size of the samples to the zone sizes of the standard curve and their corresponding concentration. A bioassay data analysis program was used to perform the calculations and plots."}, "[3]": {"conditions": "Bone Extract (non-neutralized) (pH 1.7), IncRB Group B"}}, "note": "Several values for one entry are separate records, joined by “and”; a condition that tells them apart may be missing. Equal values may be shown once.", "data": [{"smiles": "CN(C)c1cc(NC(=O)CNC(C)(C)C)c(O)c2c1C[C@H]1C[C@H]3[C@H](N(C)C)C(O)=C(C(N)=O)C(=O)[C@@]3(O)C(O)=C1C2=O", "note": "[tigecycline, Tigecycline]", "values": [{"measurement": "% Difference (54 hours vs initial)", "setting": "[1]; 54 hours at 4° C.", "result": "−0.7", "unit": "%"}, {"measurement": "Initial Concentration immediately after extraction (replicates)", "setting": "[1]; incurred human bone", "result": "261 and 258 and 270 and 269 and 218"}, {"measurement": "Re-injected sample concentration after 54-hour at 4° C. (replicates)", "setting": "[1]; incurred human bone", "result": "288 and 250 and 227 and 277 and 223"}, {"measurement": "Initial Concentration immediately after extraction, Mean", "setting": "[1]; n = 5, incurred human bone", "result": 255}, {"measurement": "Re-injected sample concentration after 54-hour at 4° C., Mean", "setting": "[1]; n = 5, incurred human bone", "result": 253}, {"measurement": "Zone Size, Sample minus diluent", "setting": "[2]; [3]", "result": 11.8, "unit": "mm"}, {"measurement": "Zone Size, Sample", "setting": "[2]; [3]", "result": 33.3, "unit": "mm"}, {"measurement": "Zone Size, Sample minus diluent", "setting": "[2]; Neutralized Bone Extract A (pH 7.0)", "result": 0, "unit": "mm"}, {"measurement": "Zone Size, Sample", "setting": "[2]; Neutralized Bone Extract A (pH 7.0), neutralization prior to methanol evaporation", "result": 0, "unit": "mm"}, {"measurement": "Zone Size, Sample minus diluent", "setting": "[2]; Neutralized Bone Extract B (pH 7.0)", "result": 0, "unit": "mm"}, {"measurement": "Zone Size, Sample", "setting": "[2]; Neutralized Bone Extract B (pH 7.0), neutralization after methanol evaporation", "result": 0, "unit": "mm"}]}]}
